# Reference: US20140271605A1, “STABLE BIOACTIVE SUBSTANCES AND METHODS OF MAKING” (ADVANCED BIONUTRITION CORP., priority 2013, published 2014)
# Experiment: Stability testing of the herbicides mixture suspension
# Type: physicochemical
# Details: 40° C. for 30 days
# Description: Stability testing of the herbicides mixture suspension: The commercial solutions containing Glyphosate or Round-Up are mixed together, and tested along with the stable Round-Up and Glyphosate mixed suspensions of the present invention. The liquids placed in an oven at 40° C. for 30 days. The remaining activities of the herbicides in the samples are measured following standard protocols.
compound,measurement,value
O=C(O)CNCP(=O)(O)O [Glyphosate],"remaining activity of the herbicide, free commercial solutions mixed together",No Glyphosate activity is detected
